This note sets out measurements from US10765094B2, “Inflammation reporter system” (priority 2014, dated 2020).

The subject of series [1] is mouse-derived macrophage-like cell line RAW264. Put plainly: Reporter activity in RAW264 cells transiently transfected with the reporter gene vector, luciferase luminescence measured with a luminometer. The format is cell-based. The note with it: LPS 2 μg/mL. How it is done: The gene vector constructed as above was transiently introduced into mouse-derived macrophage-like cell line RAW264.
For transfection, Effectene (Qiagen) was used, and the cells at 24 hours after transfection were collected and provided for experiments. To a culture of transiently expressing cells, LPS (Sigma #L2654) was added at a concentration of 2 μg/mL, and the amount of luciferase luminescence at 48 hours after addition was determined by being measured with a luminometer. For use as a control, an LPS-free group was provided. In addition, as a conventional reporter system detecting only IL-1β gene expression, a vector was prepared to have GL4 ligated downstream of a promoter for the IL-1β gene, and cells transfected with this vector were provided for the same test.

The test system of series [2] is inflammation reporter mouse. Put plainly: Visualization of inflammatory reactions in the inflammation reporter transgenic mouse, bioimaging analyzer (IVIS). The format is in vivo. The note with it: LPS 3 mg/kg wt intraperitoneally; 0, 4 and 24 hours after administration. As to the method: The excised and purified gene vector was injected into 200 fertilized eggs at the pronucleus stage which had been taken from mice of the C57BL/6 strain, thereby obtaining 71 pups. The genomic DNA extracted from the body tissue of each pup was used for genotype analysis to thereby obtain 18 founder mice having the gene vector inserted into their genome. Four founder mice were each crossed with a wild-type mouse of the C57BL/6 strain to produce F1 generation mice, which were then examined for reporter molecule reaction when intraperitoneally administered with LPS (Sigma #L2654).
The inflammation reporter mouse thus established was intraperitoneally administered with LPS (Sigma #L2654) at a concentration of 3 mg/kg wt.

lipopolysaccharide [LPS]: the “reporter signals (amount of luciferase luminescence) upon LPS stimulation” value in series [1] (48 hours after addition, vs LPS-free group, cells transfected with vector of the present invention or of conventional type) is “significant increase in reporter signals”. Further, in series [2], the “luciferase luminescence signals in the body” value is reported as “luminescence signals from luciferase were able to be captured from all tissues of the body”.

As to “vector of the present invention: gene vector: IL-1β promoter/TK promoter, GL4 luciferase, IL-1β partial sequence (17-216 aa), CL1-PEST, SV40 polyA”, the “improvement in sensitivity compared to the vector of conventional type” value in series [1] (48 hours, conventional vector = GL4 downstream of IL-1β gene promoter) was ≥ 2 fold.
